The text below walks through data of publication PMC8506611, “Discovery and Characterization of Novel Antagonists of the Proinflammatory Orphan Receptor GPR84” (ACS Pharmacology & Translational Science, 2021).

The term pA2 denotes the negative logarithm of the molar antagonist concentration that doubles the agonist concentration needed for the same response. Usually IC50 stands for the concentration at which inhibition is half-maximal.

“And” between values parts separate entries of the source, which are not always exact repeats. Equal values may be shown once.

For assay [1], the target named is T1, human GPR84-Gαi2 fusion protein (Homo sapiens, UniProt Q9NQS5). Nature of the assay: [^35S]GTPγS binding assay, membranes of Flp-In TREx 293 cells expressing human GPR84-Gαi2. It counts as biochemical. The conditions noted are these: for pA2: Gaddum/Schild analysis, shifts in potency of 2-HTP, mean ± SEM; for Gaddum/Schild slope: Schild plots versus 2-HTP. On the procedure: (§1) All data are presented as means ± SEM of at least three independent experiments. Data analysis and curve fitting was carried out using the GraphPad Prism software package version 8 (GraphPad, San Diego). […] In case of inhibition experiments with antagonists, an equivalent analysis was followed to fit an inverse sigmoidal curve. To perform the statistical analysis of curve parameters, data from multiple experiments were fitted independently and resulting curve fit values were analyzed with indicated tests. Antagonism experiments carried out with multiple defined concentrations of antagonist were fit to a global Gaddum/Schild EC50 shift equation to estimate pA2 values for the antagonist. For radioligand binding data, saturation binding curves were generated by fitting the specific binding, which was obtained by subtracting nonspecific from total binding, to a one site specific binding model that allows calculation of Kd values for the radioligand at wild-type and mutant receptors.
T1 sequence (Q9NQS5 whole entry, the tested form may be a part): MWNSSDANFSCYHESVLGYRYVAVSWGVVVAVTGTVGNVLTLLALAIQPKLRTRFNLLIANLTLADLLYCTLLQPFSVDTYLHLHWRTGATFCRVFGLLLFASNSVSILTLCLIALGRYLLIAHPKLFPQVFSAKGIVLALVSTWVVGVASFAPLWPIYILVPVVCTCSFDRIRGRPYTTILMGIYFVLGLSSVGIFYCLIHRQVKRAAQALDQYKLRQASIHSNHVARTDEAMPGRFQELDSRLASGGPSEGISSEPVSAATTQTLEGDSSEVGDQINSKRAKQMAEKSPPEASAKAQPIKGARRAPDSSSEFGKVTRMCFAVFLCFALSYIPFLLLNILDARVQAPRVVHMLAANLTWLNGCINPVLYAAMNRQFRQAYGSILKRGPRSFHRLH
T1 sequence (P04899 2-355, further chain): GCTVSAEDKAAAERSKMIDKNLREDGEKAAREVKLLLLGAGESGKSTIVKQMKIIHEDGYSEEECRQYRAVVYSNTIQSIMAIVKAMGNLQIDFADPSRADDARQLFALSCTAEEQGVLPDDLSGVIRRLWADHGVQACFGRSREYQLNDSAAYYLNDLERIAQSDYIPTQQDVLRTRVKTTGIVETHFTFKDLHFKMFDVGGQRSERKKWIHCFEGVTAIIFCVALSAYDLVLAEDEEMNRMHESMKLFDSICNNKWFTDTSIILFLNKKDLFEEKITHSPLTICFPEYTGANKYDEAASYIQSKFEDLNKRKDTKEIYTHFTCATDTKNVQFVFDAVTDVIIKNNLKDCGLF
Background: GTPγS resists hydrolysis and so accumulates on activated G proteins.

For assay [2], the system named is mouse GPR84-Gαi2 fusion protein. Nature of the assay: [^35S]GTPγS binding assay, membranes of Flp-In TREx 293 cells expressing mouse GPR84-Gαi2. Type of assay: biochemical. On the procedure:
(§2) All data are presented as means ± SEM of at least three independent experiments. Data analysis and curve fitting was carried out using the GraphPad Prism software package version 8 (GraphPad, San Diego). For functional assays the concentration–response data were plotted on a log axis, with the untreated vehicle control plotted at 1 log unit lower than the lowest ligand concentration and fitted to a three parameter sigmoidal curve with the Hill slope constrained to equal 1. In case of inhibition experiments with antagonists, an equivalent analysis was followed to fit an inverse sigmoidal curve. To perform the statistical analysis of curve parameters, data from multiple experiments were fitted independently and resulting curve fit values were analyzed with indicated tests. Antagonism experiments carried out with multiple defined concentrations of antagonist were fit to a global Gaddum/Schild EC50 shift equation to estimate pA2 values for the antagonist. For radioligand binding data, saturation binding curves were generated by fitting the specific binding, which was obtained by subtracting nonspecific from total binding, to a one site specific binding model that allows calculation of Kd values for the radioligand at wild-type and mutant receptors.

Assay [3] deals with Thr^102Ala, Ser^363Gly mouse GPR84. Nature of the assay: [^35S]GTPγS binding assay, Thr102Ala-Ser363Gly mouse GPR84 mutant. Type of assay: biochemical. On the procedure: (§3) The Stratagene QuikChange method (Stratagene, Agilent Technologies, Santa Clara, CA) was used to introduce alterations into FLAG-human GPR84-Gαi2 or FLAG-mouse GPR84-Gαi2. Primers utilized for mutagenesis were provided by MWG Operon (Acton, UK). Template DNA was digested with DpnI to leave only the newly synthesized mutated plasmid, and sequencing was carried out to confirm the introduction of the alterations.
as §2

Assay [4] has as its system Ala^102Thr, Gly^363Ser human GPR84. Nature of the assay: [^35S]GTPγS binding assay, Ala102Thr-Gly363Ser human GPR84 mutant. Type of assay: biochemical. On the procedure: as §3, §2
Assay [5] has as its target T2, ECL3/TM7 chimeric human/mouse GPR84 (Mus musculus, UniProt Q8CIM5, G345V/R346Q/S363G/V354L).
T2 construct: expressed in transfected cells; host or cells: Flp-In TREx 293 cells
Nature of the assay: Antagonism of 2-HTP at ECL3/TM7 human/mouse GPR84 chimera in Flp-In TREx 293 cells. It counts as cell-based. An excerpt:
(§4) Chimeric human-mouse GPR84-HA constructs were generated using synthetic DNA sequences purchased from Eurofins Genomics (Luxembourg), that were then subcloned in-frame into the BamH1 and Xho1 sites of pcDNA5/FRT/TO.

A further assay has as its target T3, Humanized mGPR84 (Homo sapiens, UniProt Q9NQS5, A294V/A296R/A298P/D231Q/D276G/G248R/H223R/H226Q/I278G/I301T/K216G/K284Q/K289R/K302A/L245V/M286I/N225H/N279I/P291L/P300E/P308T/Q210R/Q299R/Q379H/Q48R/R218H/R229G/R237H/R244G/R282A/R390Q/S280R/S295H/S310A/S311P/V274A).
T3 construct: expressed in transfected cells; host or cells: Flp-In TREx 293 cells
The experiment in a line: Antagonism of 2-HTP at humanized mGPR84 chimera in Flp-In TREx 293 cells. Type of assay: cell-based. Particulars: all ECL and TMD residues human in mouse backbone.
Description: as §4

Assay [6] has as its target T4, GPR84 in LPS-treated THP-1 cells (Homo sapiens, UniProt Q9NQS5).
T4 construct: GPR84 expressed endogenously in human-derived cell lines and tissue; endogenous in cells; host or cells: THP-1 cells, 100 ng/mL LPS for 24 h, membranes
The experiment in a line: [^35S]GTPγS binding assay, membranes of LPS-treated THP-1 cells. Type of assay: biochemical. The conditions noted are these: LPS-treated THP-1 membranes.

Assay [7] has as its target T1, human GPR84-Gαi2 fusion protein. Nature of the assay: cAMP assay in Flp-In TREx 293 cells expressing human GPR84-Gαi2. It counts as cell-based. On the procedure: cAMP experiments were performed using Flp-In T-REx293 cells induced to express the receptor of interest or CHO-K1 cells stably expressing the orthologue of interest. Experiments were carried out using a homogeneous time-resolved FRET-based detection kit (CisBio, Codolet, France) according to the manufacturer’s protocol. For the assay cells were plated at 5000 cells/well in low-volume 384-well plates. The ability of agonists to inhibit 1 μM forskolin-induced cAMP production was assessed following a preincubation for 15 min with antagonist compounds, then a further 30 min incubation with agonist compounds. Reactions were stopped according to the manufacturer’s instructions and the output was measured with a PHERAstar FS plate reader (BMG Labtech, Aylesbury, UK).
Background: cAMP levels reflect the balance of adenylyl cyclase and phosphodiesterase activity.

Another assay has as its target GPR84 in RAW264.7 cells (Mus musculus, UniProt Q8CIM5). The experiment in a line: [^35S]GTPγS binding assay, membranes of RAW264.7 cells. The conditions noted are these: RAW264.7 membranes.
A further assay addresses T5, mouse GPR84 (Mus musculus, UniProt Q8CIM5).
T5 construct: expressed in transfected cells
Nature of the assay: cAMP regulation assay in CHO cells expressing mouse GPR84. Type of assay: cell-based. The conditions noted are these: versus EC80 of 6-OAU.

The target of another assay is T6, rat GPR84 (Rattus norvegicus, UniProt D4ACK0).
T6 construct: expressed in transfected cells
T6 sequence (D4ACK0 1-396): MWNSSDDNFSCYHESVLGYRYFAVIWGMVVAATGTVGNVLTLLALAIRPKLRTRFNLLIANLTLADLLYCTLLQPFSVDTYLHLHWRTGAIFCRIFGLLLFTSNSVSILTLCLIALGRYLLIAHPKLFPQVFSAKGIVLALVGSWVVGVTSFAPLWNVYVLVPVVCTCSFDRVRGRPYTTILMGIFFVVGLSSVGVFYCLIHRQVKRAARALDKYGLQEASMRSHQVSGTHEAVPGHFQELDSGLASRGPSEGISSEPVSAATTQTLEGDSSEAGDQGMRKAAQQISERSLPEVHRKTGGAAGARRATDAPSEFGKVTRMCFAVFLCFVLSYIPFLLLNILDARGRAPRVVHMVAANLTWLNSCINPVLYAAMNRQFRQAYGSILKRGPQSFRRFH
Nature of the assay: cAMP regulation assay in CHO cells expressing rat GPR84. Type of assay: cell-based. Particulars: versus EC80 of 6-OAU.

Another assay has as its target T7, dog GPR84 (Canis lupus familiaris, UniProt A0A8I3P3M6).
T7 construct: expressed in transfected cells
The experiment in a line: cAMP regulation assay in CHO cells expressing dog GPR84. Type of assay: cell-based. Particulars: versus EC80 of 6-OAU.

A further assay deals with T8, pig GPR84 (Sus scrofa, UniProt I6WJ99).
T8 construct: expressed in transfected cells
T8 sequence (I6WJ99 1-396): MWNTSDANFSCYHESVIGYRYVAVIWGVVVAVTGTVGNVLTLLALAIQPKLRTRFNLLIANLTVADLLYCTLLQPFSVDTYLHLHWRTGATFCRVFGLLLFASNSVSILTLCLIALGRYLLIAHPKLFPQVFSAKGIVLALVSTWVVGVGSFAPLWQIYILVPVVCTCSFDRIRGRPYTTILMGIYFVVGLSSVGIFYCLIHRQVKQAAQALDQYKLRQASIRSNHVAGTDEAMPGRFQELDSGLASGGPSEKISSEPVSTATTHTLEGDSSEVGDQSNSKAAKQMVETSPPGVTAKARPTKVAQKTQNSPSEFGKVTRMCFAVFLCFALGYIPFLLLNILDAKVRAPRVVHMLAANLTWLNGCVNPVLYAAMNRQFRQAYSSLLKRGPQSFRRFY
The experiment in a line: cAMP regulation assay in CHO cells expressing pig GPR84. The conditions noted are these: versus EC80 of 6-OAU. It counts as cell-based.

Another assay concerns the target macaque GPR84 (Macaca mulatta, UniProt F6W0J1). Nature of the assay: cAMP regulation assay in CHO cells expressing macaque GPR84. Type of assay: cell-based. Particulars: versus EC80 of 6-OAU.
For assay [8], the system named is mouse GPR84-Gαi2 fusion protein. Nature of the assay: [^3H]140 binding assay, membranes expressing mouse GPR84-Gαi2. On the procedure: (§5) Binding was initiated by the addition of membranes (5 μg of protein per tube). All assays were performed at 25 °C for 1 h before termination by the addition of ice-cold PBS and vacuum filtration through GF/C glassfibre filter-bottom 96-well microplates. Plates were washed three times with ice-cold PBS then allowed to dry for 2–3 h at room temperature. MicroScint-20 was added to dried filter plates, and radioactivity was quantified by liquid scintillation spectrometry. Specific binding was defined as the difference between binding detected in the presence and absence of 10 μM compound 020.
All data are presented as means ± SEM of at least three independent experiments. Data analysis and curve fitting was carried out using the GraphPad Prism software package version 8 (GraphPad, San Diego). For functional assays the concentration–response data were plotted on a log axis, with the untreated vehicle control plotted at 1 log unit lower than the lowest ligand concentration and fitted to a three parameter sigmoidal curve with the Hill slope constrained to equal 1. In case of inhibition experiments with antagonists, an equivalent analysis was followed to fit an inverse sigmoidal curve. To perform the statistical analysis of curve parameters, data from multiple experiments were fitted independently and resulting curve fit values were analyzed with indicated tests. […]

Assay [9] relates to Ala^102Thr, Gly^363Ser human GPR84. Nature of the assay: [^3H]140 binding assay, Ala102Thr-Gly363Ser human GPR84-Gαi2. On the procedure: as §3, §5
All data are presented as means ± SEM of at least three independent experiments. Data analysis and curve fitting was carried out using the GraphPad Prism software package version 8 (GraphPad, San Diego). […] To perform the statistical analysis of curve parameters, data from multiple experiments were fitted independently and resulting curve fit values were analyzed with indicated tests. […]

For assay [10], the system named is parental Flp-In TREx 293 cells. The experiment in a line: [^3H]140 binding assay, membranes from parental cells. Particulars: parental cell membranes. On the procedure: as §5
The target of assay [11] is T4, GPR84 in LPS-treated THP-1 cells. The experiment in a line: [^3H]140 binding assay, membranes of LPS-treated THP-1 cells. The conditions noted are these: LPS-treated THP-1 membranes. On the procedure:
as §1

T4 sequence (Q9NQS5 whole entry): as the sequence (Q9NQS5 whole entry, the tested form may be a part) above
GPR84 in RAW264.7 cells, sequence (Q8CIM5 whole entry): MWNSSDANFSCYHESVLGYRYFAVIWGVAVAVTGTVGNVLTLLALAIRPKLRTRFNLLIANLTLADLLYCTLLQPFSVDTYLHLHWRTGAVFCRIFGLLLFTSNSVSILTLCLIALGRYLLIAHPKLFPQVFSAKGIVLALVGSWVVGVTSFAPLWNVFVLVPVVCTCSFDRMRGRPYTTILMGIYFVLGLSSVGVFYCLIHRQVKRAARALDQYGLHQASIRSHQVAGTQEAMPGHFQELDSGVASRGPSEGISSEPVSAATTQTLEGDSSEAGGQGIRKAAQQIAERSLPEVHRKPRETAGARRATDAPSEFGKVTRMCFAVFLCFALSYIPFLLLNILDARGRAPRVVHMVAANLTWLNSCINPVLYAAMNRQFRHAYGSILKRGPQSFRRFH
T5 sequence (Q8CIM5 whole entry): as above
T7 sequence (A0A8I3P3M6 1-393): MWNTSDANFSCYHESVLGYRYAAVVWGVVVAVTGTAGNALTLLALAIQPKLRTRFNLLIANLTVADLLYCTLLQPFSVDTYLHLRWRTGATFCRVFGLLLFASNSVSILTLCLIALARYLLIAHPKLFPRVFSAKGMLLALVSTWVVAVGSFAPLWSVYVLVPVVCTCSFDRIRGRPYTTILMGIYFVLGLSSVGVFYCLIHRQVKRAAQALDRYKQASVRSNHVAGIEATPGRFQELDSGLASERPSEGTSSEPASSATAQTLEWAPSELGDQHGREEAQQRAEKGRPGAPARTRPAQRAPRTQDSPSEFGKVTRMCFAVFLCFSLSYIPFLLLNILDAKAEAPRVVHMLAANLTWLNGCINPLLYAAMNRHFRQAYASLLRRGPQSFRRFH
macaque GPR84, sequence (F6W0J1 1-396): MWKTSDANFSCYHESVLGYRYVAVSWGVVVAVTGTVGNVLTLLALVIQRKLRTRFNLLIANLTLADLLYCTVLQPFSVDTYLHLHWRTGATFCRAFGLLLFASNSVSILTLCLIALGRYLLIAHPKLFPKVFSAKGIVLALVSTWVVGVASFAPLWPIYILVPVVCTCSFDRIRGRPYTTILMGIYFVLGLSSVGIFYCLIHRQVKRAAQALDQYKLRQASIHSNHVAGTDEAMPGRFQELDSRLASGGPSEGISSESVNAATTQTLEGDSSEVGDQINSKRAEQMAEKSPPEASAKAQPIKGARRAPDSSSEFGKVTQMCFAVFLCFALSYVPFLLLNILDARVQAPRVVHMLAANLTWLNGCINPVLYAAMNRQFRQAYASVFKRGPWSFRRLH
T2 sequence (Q8CIM5 whole entry G345V/R346Q/V354L/S363G): as the sequence (Q8CIM5 whole entry) above, with G345V, R346Q, V354L, S363G counted along it
T3 sequence (Q9NQS5 with tags, fused parts or gaps with the stated changes): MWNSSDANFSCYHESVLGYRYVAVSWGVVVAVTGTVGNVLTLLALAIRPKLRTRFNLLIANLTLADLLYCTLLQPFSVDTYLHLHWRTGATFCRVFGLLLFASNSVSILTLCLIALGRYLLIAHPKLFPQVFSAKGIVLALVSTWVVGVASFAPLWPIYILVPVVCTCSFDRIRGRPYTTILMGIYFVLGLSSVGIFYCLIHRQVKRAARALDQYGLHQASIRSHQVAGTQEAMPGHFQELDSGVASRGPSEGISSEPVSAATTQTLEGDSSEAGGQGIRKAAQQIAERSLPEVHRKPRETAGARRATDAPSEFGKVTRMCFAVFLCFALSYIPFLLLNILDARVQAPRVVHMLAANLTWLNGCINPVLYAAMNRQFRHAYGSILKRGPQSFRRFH

In the case of `COc1ccc(-c2nnc(Cc3c[nH]c4ccccc34)nc2-c2ccc(OC)cc2)cc1` [Compound 837, 3-((5,6-Bis(4-methoxyphenyl)-1,2,4-triazin-3-yl)methyl)-1H-indole], the “block of activation promoted by 2-HTP” value in assay [1] (EC80 of 2-HTP) is recorded as “fully block”. The “block of activation promoted by 6-OAU” value in [1] (EC80 of 6-OAU) is given as “fully block”. Besides, the pA2 in assay [1] was 8.90 ± 0.08 and 8.9; in assay [3] (versus 2-HTP, mean ± SEM n = 3) it was 7.78 ± 0.08; in assay [4] (versus 2-HTP, mean ± SEM n = 3), 6.33 ± 0.15. In addition, the Gaddum/Schild slope in assay [1] came to 1.11 ± 0.04. The IC50 in [1] (against an EC80 of embelin) was under 100 nM; in [5] it was 363 nM. Also, in assay [1] (allosteric activator DIM), the “reversal of activation produced by DIM” value was “fully reversed”. The “antagonism of mouse GPR84” value in assay [2] (EC80 of 2-HTP) is given as “no significant capacity to antagonize”. Moreover, the “affinity (from pA2)” value in assay [2] (wild-type mouse GPR84) is under 100 μM. In addition, the “block of activation by 2-HTP” value in assay [3] is reported as “able to fully block activation by 2-HTP”; in [4] it was “unable to block”. For the same compound, in assay [3] (from pA2), the “fold higher affinity than at wild-type mouse GPR84” value was “at least 5000 fold”. For the same compound, the “fold lower affinity than at wild-type human GPR84” value in [3] (from pA2) was about 13 fold; in [4] (from pA2), 380 fold. Further, the “affinity at humanized chimera compared with wild-type human receptor” value at Humanized mGPR84 was “equal affinity”. For the same compound, the “block of 2-HTP-induced [^35S]GTPγS binding” value in assay [6] was “blocked in a concentration-dependent and high potency manner”; at GPR84 in RAW264.7 cells, “unable to produce such an effect”. For the same compound, the “block of inhibition of forskolin-amplified cAMP levels by 2-HTP” value in assay [7] (2-HTP) is given as “fully blocked”. Moreover, the “block of inhibition of forskolin-amplified cAMP levels by 6-OAU” value in [7] (6-OAU) is reported as “fully blocked”.

As for `CC(=O)OCc1ccc(-c2nnc(Cc3c[nH]c4ccccc34)nc2-c2ccccc2)cc1` [Compound 021, 4-(3-((1H-indol-3-yl)methyl)-5-phenyl-1,2,4-triazin-6-yl)benzyl acetate], in assay [1], the pA2 is 9.31 ± 0.10 and the Gaddum/Schild slope is on record as 1.14 ± 0.03.

Consider `CC(=O)OCc1ccc(-c2nc(Cc3c[nH]c4ccccc34)nnc2-c2ccccc2)cc1` [Compound 020, 4-(3-((1H-indol-3-yl)methyl)-6-phenyl-1,2,4-triazin-5-yl)benzyl acetate], for which, in assay [1], the pA2 is reported as 9.19 ± 0.10 and the Gaddum/Schild slope is given as 1.27 ± 0.03. Moreover, in assay [2] (Gaddum/Schild analysis versus 2-HTP, wild-type mouse GPR84), the pA2 is under 6.0. Further, the “fold higher concentrations than required to antagonize human GPR84” value in [2] (limited effects at mouse GPR84) was “at least 1000 fold”.

In the case of `c1ccc(-c2nnc(Cc3c[nH]c4ccccc34)nc2-c2ccccc2)cc1` [Compound 140, 3-((5,6-Diphenyl-1,2,4-triazin-3-yl)methyl)-1H-indole], the IC50 against mouse GPR84 was over 10000 nM; at rat GPR84, 8700 nM; against dog GPR84 it was 8.1 nM; on pig GPR84, 5.6 nM; at macaque GPR84, 6.4 nM.

For the compound `c1ccc(-c2nnc(Cc3c[nH]c4ccccc34)nc2-c2ccccc2)cc1` [[^3H]140, [^3H]3-((5,6-diphenyl-1,2,4-triazin-3-yl)methyl)-1H-indole], the specific binding result in assay [8] was “unable to detect specific binding”; in [10], “no specific binding”. For the same compound, the direct binding result in assay [9] is listed as “not possible to measure binding”. In assay [11], this compound showed a Bmax of 905 ± 93 fmol/mg membrane protein.

As for `Ic1ccc(-c2nnc(Cc3c[nH]c4ccccc34)nc2-c2ccc(I)cc2)cc1` [Compound 441, 3-((5,6-Bis(4-iodophenyl)-1,2,4-triazin-3-yl)methyl)-1H-indole], in assay [1], the pA2 is recorded as 8.07 ± 0.02.
